Counter-ions that a name gives are not always drawn.
Key:
ABCA8 [1] = target: T1, ABCA8 (Homo sapiens, UniProt O94911); experiment: uptake of various isotope-labeled compounds into oocytes; assay type: cell-based
T1 construct: expressed in transfected cells; host or cells: Xenopus oocytes (stage V) microinjected with capped cRNA
Method: (§1) The cultured oocytes (n=10 to 20) were mixed with 2 to 3 ml of a medium and an isotope-labeled compound, and the mixture was then placed in a small incubator. Small amounts of the cells were serially sampled. Each oocyte was washed with a fresh MBS 3 times, and it was then dissolved in a 10% SDS solution at room temperature for 30 minutes. As such an isotope-labeled compound, ^14C-estradiol-β-glucuronide that is a model probe for MRP (multidrug resistance associated protein), a member of an ABC transporter family, was used. Subsequently, a scintillation cocktail (ACS2, manufactured by Amersham) was added thereto, and then, a radioactivity taken into the oocyte was measured with a liquid scintillation counter (LSC-3500, manufactured by Aloka).
Subsequently, the uptake of various isotope-labeled compounds into cells was measured. Measurement was carried out in the same manner as in Example 1 with the exception that the following compounds were used. • LTC4 (leukotriene C4): a substrate for MRP (an additive amount: 20 μM) • Taurocholic acid: a substrate for OAT (an additive amount: 100 μM) • TEA (tetraethylammonium): a substrate for OCT (an additive amount: 10 nM) • Digoxin: a substrate for MDR (an additive amount: 100 nM) • Doxorubicin: a substrate for MDR (an additive amount: 100 μg/ml) • PAH (para-aminohippuric acid): a substrate for MRP and OAT (an additive amount: 1 mM)

ABCA8 [2] = target: T1, ABCA8; experiment: inhibition test of the uptake of 14C-estradiol-β-glucuronide into oocytes by various compounds; assay type: cell-based; conditions: for uptake of 14C-estradiol-β-glucuronide decreased to: inhibitor additive amount 10 μM
Method: An inhibition test was carried out on the protein encoded by a DNA comprising the nucleotide sequence represented by SEQ ID NO: 2. In the test, in the above described determination of the uptake of ^14C-estradiol-β-glucuronide, various types of compounds were previously added to a reaction medium, so as to examine whether or not the uptake of ^14C-estradiol-β-glucuronide was inhibited by the compounds.

ABCA8 [3] = target: T1, ABCA8; experiment: uptake of 3H-indoxyl sulfate into oocytes and its inhibition by probenecid; assay type: cell-based
Method: as §1
(§2) The same procedure was carried out as in Example 1 with the exception that ^3H-labeled indoxyl sulfate, one of the urinary toxins, was isotope-labeled with ^3H was used as a compound in a concentration of 2 μM. At the same time, a system to which probenecid was added in a concentration of 1 mM, and a system to which water was added instead of cRNA, were also subjected to the same test.

ABCA8 [4] = target: T1, ABCA8; experiment: uptake of 14C-estradiol-β-glucuronide into Xenopus oocytes injected with cRNA of the drug transporter; assay type: cell-based
Method: A mature female Xenopus purchased from Hamamatsu Animal was bred under normal conditions. Thereafter, stage V oocytes were selected therefrom, and the cells were incubated in a modified Barth's solution (MBS) containing 88 mM NaCl, 1 mM KCl, 2.4 mM NaHCO3, 15 mM Tris-Cl, 0.3 mM CaNO3, 0.82 mM MgSO4, 0.41 mM CaCl2, 10 μg/ml penicillin and 10 μg/ml streptomycin. Thereafter, cRNA was prepared by a known method using a DNA having the nucleotide sequence represented by SEQ ID NO: 1, and an aqueous solution containing the obtained cRNA was injected into the mature Xenopus oocytes by microinjection. For such microinjection, cRNA whose 5′-terminus was capped or 50 nl of water was injected into the oocytes in vitro, using an automatic injector (IM200J, Narishige, Japan). The thus injected oocytes were cultured at 17° C. for 3 days in MBS, while exchanging the medium with a new one every day. 3 days after the culture, the oocytes expressed a drug transporter.
The used cRNA was obtained by […] of cDNA from Kazusa DNA Research Institute, which has been cloned as one of full-length cDNAs obtained from human brain and has been deposited with NCBI (National Center for Biotechnology Information, USA) under accession No. AB020629.
as §1
In this case, the concentration of ^14C-estradiol-β-glucuronide in the medium was 37 nM. […]

ABCA8 [5] = target: T1, ABCA8; experiment: ATP dependency of the uptake of 14C-estradiol-β-glucuronide into oocytes; assay type: cell-based; conditions: ATP added, up to 5 mM
Method: A protein encoded by a DNA comprising the nucleotide sequence represented by SEQ ID NO: 2has an ATP-binding cassette. Thus, a test was made to see ATP dependency of the uptake of ^14C-estradiol-β-glucuronide. In the test, ATP was added in the above determination of the uptake of ^14C-estradiol-[…], and the same operation was then carried out to determine the uptake of ^14C-estradiol-β-glucuronide.

[6] = substrate: O=S(=O)(O)Oc1c[nH]c2ccccc12; experiment: uptake of 3H-indoxyl sulfate into oocytes and its inhibition by probenecid; assay type: cell-based, human; conditions: other: cRNA-injected oocytes
Method: as §1, §2

CCCCC/C=C\C\C=C/C=C/C=C/[C@@H](SC[C@H](NC(=O)CC[C@H](N)C(=O)O)C(=O)NCC(=O)O)[C@@H](O)CCCC(=O)O [LTC-4, leukotriene C4]
uptake of isotope-labeled compound into oocytes (ABCA8 [1]; additive amount 20 μM): taken into oocytes

CN(C)C(=O)CCSC(SCCC(=O)O)c1cccc(/C=C/c2ccc3ccc(Cl)cc3n2)c1 (centres unmarked) [MK-571]
uptake of 14C-estradiol-β-glucuronide decreased to (ABCA8 [2]): approximately 30%

O=C(C(c1ccccc1)c1ccccc1)N1CCN(CC(O)COc2cccc3ncccc23)CC1 (centres unmarked) [MS-209]
uptake of 14C-estradiol-β-glucuronide decreased to (ABCA8 [2]): approximately 30%

Nc1ccc(C(=O)NCC(=O)O)cc1 [PAH, para-aminohippuric acid]
uptake of isotope-labeled compound into oocytes (ABCA8 [1]; additive amount 1 mM): taken into oocytes

CC[N+](CC)(CC)CC [TEA, tetraethylammonium]
uptake of isotope-labeled compound into oocytes (ABCA8 [1]; additive amount 10 nM): does not have a function to transport

O=S(=O)(O)Oc1c[nH]c2ccccc12 [^3H-indoxyl sulfate, indoxyl sulfate]
Vmax of uptake (ABCA8 [3]; cRNA-injected oocytes): 5.5 pmol/hr/egg
uptake of 3H-indoxyl sulfate into oocytes, time course (ABCA8 [3]; cRNA-injected oocytes, 2 μM): linearly increased with time

CN/C(=N/CCSCc1nc[nH]c1C)NC#N [cimetidine, Cimetidine]
inhibitory effect on uptake of 14C-estradiol-β-glucuronide (ABCA8 [2]; additive amount 1 mM): no inhibitory effect

C[C@H]1O[C@@H](O[C@H]2[C@@H](O)C[C@H](O[C@H]3[C@@H](O)C[C@H](O[C@H]4CC[C@@]5(C)[C@H](CC[C@@H]6[C@@H]5C[C@@H](O)[C@]5(C)[C@@H](C7=CC(=O)OC7)CC[C@]65O)C4)O[C@@H]3C)O[C@@H]2C)C[C@H](O)[C@@H]1O [digoxin, Digoxin]
inhibitory effect on uptake of 14C-estradiol-β-glucuronide (ABCA8 [2]; additive amount 0.25 mM): small extent of inhibitory effect
uptake of isotope-labeled compound into oocytes (ABCA8 [1]; additive amount 100 nM): excreted therefrom (or its original uptake was inhibited)

COc1cccc2c1C(=O)c1c(O)c3c(c(O)c1C2=O)C[C@@](O)(C(=O)CO)C[C@@H]3O[C@H]1C[C@H](N)[C@H](O)[C@H](C)O1 [doxorubicin, Doxorubicin]
uptake of isotope-labeled compound into oocytes (ABCA8 [1]; additive amount 100 μg/ml): does not have a function to transport

C[C@@H]1Cc2c(Cl)cc(C(=O)N[C@@H](Cc3ccccc3)C(=O)O)c(O)c2C(=O)O1 [ochratoxin A, Ochratoxin A]
inhibitory effect on uptake of 14C-estradiol-β-glucuronide (ABCA8 [2]; additive amount 50 μM): inhibitory effect

CCCN(CCC)S(=O)(=O)c1ccc(C(=O)O)cc1 [probenecid, Probenecid]
inhibitory effect on uptake of 14C-estradiol-β-glucuronide (ABCA8 [2]; additive amount 1 mM): small extent of inhibitory effect
effect on uptake of 3H-indoxyl sulfate into the cells (ABCA8 [3]; probenecid 1 mM, 3H-indoxyl sulfate 2 μM): decreased

C[C@H](CCC(=O)NCCS(=O)(=O)O)[C@H]1CC[C@H]2[C@@H]3[C@H](O)C[C@@H]4C[C@H](O)CC[C@]4(C)[C@H]3C[C@H](O)[C@]12C [taurocholic acid, Taurocholic acid]
uptake of isotope-labeled compound into oocytes (ABCA8 [1]; additive amount 100 μM): taken into oocytes

^14C-estradiol-β-glucuronide
intake of 14C-estradiol-β-glucuronide into the cells (ABCA8 [4]; 37 nM in the medium, about 60 minutes): 138±5.5 fmol/hr/egg
Km (ABCA8 [4]; Michaelis-Menten): 30.4 µM
Vmax of uptake (ABCA8 [4]; Michaelis-Menten): 8.37 pmol/hr/egg
influence of ATP concentration on uptake into the cells (ABCA8 [5]): increased with the increase of ATP concentration

B1: ABCA8 (Homo sapiens) (protein)
chain: MRKRKISVCQQTWALLCKNFLKKWRMKRESLMEWLNSLLLLLCLYIYPHSHQVNDFSSLLTMDLGRVDTFNESRFSVVYTPVTNTTQQIMNKVASTPFLAGKEVLGLPDEESIKEFTANYPEEIVRVTFTNTYSYHLKFLLGHGMPAKKEHKDHTAHCYETNEDVYCEVSVFWKEGFVALQAAINAAIIEITTNHSVMEELMSVTGKNMKMHSFIGQSGVITDLYLFSCIISFSSFIYYASVNVTRERKRMKALMTMMGLRDSAFWLSWGLLYAGFIFIMALFLALVIRSTQFIILSGFMVVFSLFLLYGLSLVALAFLMSILVKKSFLTGLVVFLLTVFWGCLGFTSLYRHLPASLEWILSLLSPFAFMLGMAQLLHLDYDLNSNAFPHPSDGSNLIVATNFMLAFDTCLYLALAIYFEKILPNEYGHRRPPLFFLKSSFWSQTQKTDHVALEDEMDADPSFHDSFEQAPPEFQGKEAIRIRNVTKEYKGKPDKIEALKDLVFDIYEGQITAILGHSGAGKSTLLNILSGLSVPTKGSVTIYNNKLSEMADLENLSKLTGVCPQSNVQFDFLTVRENLRLFAKIKGILPQEVDKEIFLLDEPTAGLDPFSRHQVWNLLKERKTDRVILFSTQFMDEADILADRKVFLSQGKLKCAGSSLFLKKKWGIGYHLSLQLNEICVEENITSLVKQHIPDAKLSAKSEGKLIYTLPLERTNKFPELYKDLDSYPDLGIENYGVSMTTLNEVFLKLEGKSTINESDIAILGEVQAEKADDTERLVEMEQVLSSLNKMRKTIGGVALWRQQICAIARVRLLKLKHERKALLALLLILMAGFCPLLVEYTMVKIYQNSYTWELSPHLYFLAPGQQPHDPLTQLLIINKTGASIDDFIQSVEHQNIALEVDAFGTRNGTDDPSYNGAITVCCNEKNYSFSLACNAKRLNCFPVLMDIVSNGLLGMVKPSVHIRTERSTFLENGQDNPIGFLAYIMFWLVLTSSCPPYIAMSSIDDYKNRARSQLRISGLSPSAYWFGQALVDVSLYFLVFVFIYLMSYISNFEDMLLTIIHIIQIPCAVGYSFSLIFMTYVISFIFRKGRKNSGIWSFCFYVVTVFSVAGFAFSIFESDIPFIFTFLIPPATMIGCLFLSSHLLFSSLFSEERMDVQPFLVFLIPFLHFIIFLFTLRCLEWKFGKKSMRKDPFFRISPRSSDVCQNPEEPEGEDEDVQMERVRTANALNSTNFDEKPVIIASCLRKEYAGKRKGCFSKRKNKIATRNVSFCVRKGEVLGLLGHNGAGKSTSIKVITGDTKPTAGQVLLKGSGGGDALEFLGYCPQENALWPNLTVRQHLEVYAAVKGLRKGDAEVAITRLVDALKLQDQLKSPVKTLSEGIKRKLCFVLSILGNPSVVLLDEPSTGMDPEGQQQMWQAIRATFRNTERGALLTTHYMAEAEAVCDRVAIMVSGRLRCIGSIQHLKSKFGKDYLLEMKVKNLAQVEPLHAEILRLFPQAARQERYSSLMVYKLPVEDVQPLAQAFFKLEKVKQSFDLEEYSLSQSTLEQVFLELSKEQELGDFEEDFDPSVKWKLLPQEEP
notes: expressed in transfected cells; host or cells: Xenopus oocytes (stage V) microinjected with capped cRNA
Km [6]: 25.5 µM

Reference: US20050014152A1, “Drug transporter and use thereof” (priority 2001, published 2005)
